Common to all, as to type: cell-based, human
The subject of one series is HO-1. Nature of the series: HO-1 protein levels by ELISA. The conditions noted are these: 48 h. Here is the method: Protein expression levels of HO-1 were determined by ELISA (enzyme-linked immunosorbent assay) using a commercial kit (#ab207621, Abcam) according to the manufacturer's instructions. For this purpose, cells were seeded onto PLO/FN coated 6-well microplates. After the pharmacological treatments, cells were washed with warm HBSS, trypsinized and pelleted as before, and finally lysed in 100 µl cell extraction buffer PTR provided by the kit. Sample concentration was measured by BCA, as previously mentioned, and 1 µg of total protein extract was loaded into the respective wells. All samples were run in duplicates and the absorbances were measured on a FLUOstar® Omega plate reader at λ 450 nm. For data analysis, we used the MARS software (BMG LabTech). First, we calculated the means of the absorbances for each condition. The mean value of the blank control (i.e., a condition with only sample diluent buffer) was subtracted from the mean values of all standard and experimental conditions. A 4PL-curve fit was plotted on Prism 9 software (GraphPad Software, San Diego, CA, USA), using the blank-corrected mean values of standard conditions. The obtained curve was used to determine the HO-1 protein concentration, followed by multiplication by the dilution factor to obtain the concentration of the target-protein in each sample.
For orientation: ELISA stands for enzyme-linked immunosorbent assay.

The test system of another series is LUHMES cells. Kind of series: Annonacin titration, calcein viability assay. The conditions noted are these: 20 nM annonacin, 48 h, glucose-reduced medium. The protocol: Commercial annonacin (Cayman Chemical, Michigan, MI, USA) was diluted in DMSO and stored in small aliquots of 100 µM stock solution at -80 °C. For annonacin titration, LUHMES cells were seeded onto a 48-well microplate and intoxicated on day 6 of differentiation with different concentrations of annonacin, over a period of 48 h, in glucose-reduced differentiation medium of DMEM without glucose (Gibco), supplemented with 2.4 mM glucose, 1% N-2 supplement, 1 µg/ml tetracycline, […] GDNF, and 490 µg/ml dbcAMP to mimic the physiological concentration of glucose in the human brain[44],[45]. Each experimental condition was run in triplicates. Cell viability was measured by calcein viability assay, as detailed below. […]
The calcein AM green dye (Thermo Fisher Scientific) was diluted in DMSO to obtain a 1 mM stock solution. […] Cells were lysed in a 200 µl volume of 1% Triton™ X-100 in PBS (phosphate buffered saline) and the lysate transferred to a 96‐well black plate for the readout. The fluorescence signal was measured on a FLUOstar® Omega plate reader (BMG LabTech, Ortenberg, Germany) at λ Ex/Em = 485/530 nm and data was analyzed with the MARS data analysis software (BMG LabTech). For background correction, we subtracted the background control signal from the measured values of all experimental conditions. […]

The subject of the next series is total tau transcripts. Nature of the series: Total tau mRNA by RT-qPCR. The conditions noted are these: 20 nM annonacin alone, 48 h, vs control. Here is the method:
(§1) LUHMES cells were seeded on PLO/FN coated 6-well microplates and the pharmacological treatments were performed as previously explained. The cells were washed in HBSS, prior to being collected for mRNA isolation (RNeasy® Plus Mini Kit, Qiagen, Venlo, Netherlands), following the manufacturer’s instructions. The mRNA concentrations were determined on a Nano-Drop 2000c (Thermo Fisher Scientific) and 1 µg of mRNA was reverse-transcribed into cDNA with the iScript™ Reverse Transcription Supermix for RT-qPCR Kit (Bio-Rad) on a thermal cycler (SensoQuest, Göttingen, Germany). Real-time PCR was performed using SYBR™ Select Master Mix for CFX (Thermo Fisher Scientific) with 30 ng cDNA and 0.4 µM of primers against the respective target genes (Supplementary Table S3), in a 20 µl total volume, on a CFX96 Touch™ Real-Time Cycler (Bio-Rad). The relative expression of mRNA was calculated using the CFX Manager software (ΔΔCt method) from Bio-Rad, and the Ct values of the target-genes were normalized to the reference genes RPL22 and UBQLN1. The data were reported as fold change relative to the control (DMSO-treated) condition.
A general note: Quantitative PCR measures a nucleic acid by following its amplification.

For the next series, the system named is 3R-tau transcripts. Kind of series: 3R-tau mRNA by RT-qPCR. The conditions noted are these: 20 nM annonacin alone, 48 h, vs control. The protocol:
as §1

Another series deals with NQO1. Kind of series: NQO1 mRNA after siRNA transfection (RT-qPCR). The conditions noted are these: Nrf2 siRNA transfected cells, annonacin model. The protocol: as §1, with “Real-time PCR was performed using SYBR™ Select Master Mix for CFX (Thermo Fisher Scientific) with 30 ng cDNA and 0.4 µM of primers against the respective target genes (Supplementary Table S3), in a 20 µl total volume, on a CFX96 Touch™ Real-Time Cycler (Bio-Rad).” left out, “The data were reported as fold change relative to the control (DMSO-treated) condition.” left out
LUHMES cells seeded on PLO/FN coated 48-well microplates were left to differentiate for 5 days, before being transfected with 25 nM of NRF2-targeting (gene ID 4780) or negative control siRNA (siTOOLs Biotech, Planegg, Germany), in Opti-MEM + GlutaMax medium (Thermo Fisher Scientific) with 0.4% of lipofectamine RNAiMax. […] Cell viability was determined by calcein assay, after 48 h of treatment, as explained before.

The structures appear in SMILES notation.

In the case of `Cn1c(Nc2nc3ccc(C(F)(F)F)cc3s2)nc2cc(C(=O)NCCOCCO)ccc21` [HPP-D], the HO-1 protein expression result with HO-1 (absence of annonacin) and in the series on HO-1 (presence of 20 nM annonacin) was “significantly increased the HO-1 protein expression” in each case.

As to `CCCCCCCCCCCC[C@@H](O)[C@H]1CC[C@H]([C@H](O)CCCC[C@H](O)CCCCC[C@@H](O)CC2=CC(C)OC2=O)O1` (stereo partly drawn) [annonacin], in the series on LUHMES cells, the cell viability entry was “approximately 50 % of the untreated condition”. Moreover, the total tau transcripts result in the series with total tau transcripts is reported as “significantly downregulated”. For the same compound, the 3R-tau transcripts entry in the series on 3R-tau transcripts is reported as “downregulation of 3R-tau transcripts”.

For `C=CC(C)(C)c1cc(/C=C/C(=O)c2ccc(O)cc2)c(OC)cc1O` [licochalcone A], the “NQO1 expression despite Nrf2 knockdown” value with NQO1 was “still led to an induction of NQO1 expression”.
